Patent publication US12247004B2, “2-amino-N-(amino-oxo-aryl-lambda6-sulfanylidene)acetamide compounds and their therapeutic use” (Oxford Drug Design Limited, priority 2019, dated 2025)
In brackets after ≈: the same amount, converted by molar mass. Where a name gives a salt, the structure may show the parent alone. Read-outs that look alike come from different tables or passages of the source.

How the values were obtained:
[1] = test system: bacteria (ATCC reference strains); experiment: Antibacterial activity, MIC by broth micro-dilution (CLSI)
[2] = biological target: Leucyl-tRNA synthetase (LeuRS) (Escherichia coli (strain K12), UniProt P07813); experiment: Leucyl-tRNA synthetase enzyme inhibition (AMP-Glo; single point % inhibition at 100 μM and IC50); type: biochemical
Chain of Leucyl-tRNA synthetase (LeuRS) (P07813 whole entry, looked up): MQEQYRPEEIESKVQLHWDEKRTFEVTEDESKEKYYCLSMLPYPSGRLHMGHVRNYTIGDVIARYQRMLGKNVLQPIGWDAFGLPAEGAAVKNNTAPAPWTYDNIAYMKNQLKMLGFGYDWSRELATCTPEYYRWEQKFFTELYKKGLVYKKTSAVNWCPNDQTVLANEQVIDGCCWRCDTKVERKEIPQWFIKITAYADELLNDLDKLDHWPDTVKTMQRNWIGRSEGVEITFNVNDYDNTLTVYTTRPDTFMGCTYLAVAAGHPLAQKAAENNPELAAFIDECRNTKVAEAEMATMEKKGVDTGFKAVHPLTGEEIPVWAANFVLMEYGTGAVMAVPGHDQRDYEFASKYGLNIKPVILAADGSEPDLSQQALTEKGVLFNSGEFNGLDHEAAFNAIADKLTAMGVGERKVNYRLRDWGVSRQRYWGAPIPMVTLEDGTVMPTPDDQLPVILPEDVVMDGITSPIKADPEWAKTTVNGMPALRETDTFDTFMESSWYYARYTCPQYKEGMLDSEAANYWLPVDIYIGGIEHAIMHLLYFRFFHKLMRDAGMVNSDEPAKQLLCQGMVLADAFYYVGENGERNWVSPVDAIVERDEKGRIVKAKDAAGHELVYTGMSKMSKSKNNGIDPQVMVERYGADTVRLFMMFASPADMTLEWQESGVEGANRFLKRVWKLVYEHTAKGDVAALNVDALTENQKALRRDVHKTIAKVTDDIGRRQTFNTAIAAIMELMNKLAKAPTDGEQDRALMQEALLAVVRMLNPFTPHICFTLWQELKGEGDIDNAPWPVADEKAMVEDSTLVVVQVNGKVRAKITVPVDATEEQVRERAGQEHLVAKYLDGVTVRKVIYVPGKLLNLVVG
Source text: Study 1—Enzyme Inhibition
The aminoacylation reaction catalyzed by aminoacyl-tRNA synthetases (aaRS) takes place in two steps. In the first step, aaRS activates its cognate amino acid with ATP; and in the second step the activated amino acid is loaded to its corresponding tRNA. This reaction can be summarized as follows: aaRS+aa+ATP=aaRS-aa-AMP+PPi aaRS-aa-AMP+tRNA=aa-tRNA+AMP+aaRS
wherein: aaRS, aminoacyl-tRNA synthetase; aa, amino acid; aaRS-aa-AMP, enzyme-bound to aminoacyl-adenylate; AMP, adenosine monophosphate; aa-tRNA, aminoacyl-tRNA, PPi, inorganic pyrophosphate.
a. Single Point Percentage Inhibition
The activity of the pathogenic aaRSs was monitored by measuring AMP production using the commercial kit AMP-Glo (Promega, Madison, USA).
Ligand stock solutions were prepared in 100% DMSO at 10 mM concentration. An assay buffer consisting of 100 mM Tris HCl pH 7.6, 40 mM MgCl, 20 mM KCl and 150 mM NaCl was prepared in dH2O.
Using the same enzymatic assay in a 384-well plate format, ten point concentration response curves were generated for each compound using a top concentration of 10 μM. The known inhibitor LeuAMS was used as a positive control for the LeuRS assay. 100% DMSO was used as a negative control. The IC50 was calculated based on non-linear regression analysis.

[3] = Escherichia coli, ATCC25922, read-out: Antibacterial Activity (MIC), A = E. coli ATCC 25922
[4] = Escherichia coli, BAA2469, read-out: Antibacterial Activity (MIC), G = E. coli BAA-2469
[5] = Acinetobacter baumannii, read-out: Antibacterial Activity (MIC), E = A. baumannii B1931
[6] = Enterobacter cloacae, read-out: Antibacterial Activity (MIC), B = Enterobacter cloacae B1966
[7] = Klebsiella pneumoniae, ATCC700603, read-out: Antibacterial Activity (MIC), C = K. pneumoniae ATCC 700603
[8] = Pseudomonas aeruginosa, ATCC27853, read-out: Antibacterial Activity (MIC), D = P. aeruginosa ATCC 27853
[9] = E. coli LeuRS, read-out: Enzyme Inhibition - IC50, E. coli LeuRS
[10] = Haemophilus influenzae, ATCC49247, read-out: Antibacterial Activity (MIC), F = H. influenzae ATCC 49247

Compound	MIC [1, 3]	IC50 [2]	MIC [1, 4]	IC50 [2, 9]	also measured
CC(C)C[C@H](N)C(=O)N=[S@](N)(=O)c1scc(Br)c1Br.Cl [ANASIA-107-1]	32 µg/mL	106 nM			
COc1ccc([S@@](N)(=O)=NC(=O)[C@@H](N)CC(C)C)s1.Cl [ANASIA-109-1]	32 µg/mL	2560 nM	32 µg/mL		
Cc1csc([S@@](N)(=O)=NC(=O)[C@@H](N)CC(C)C)c1.Cl [ANASIA-095-1]	0.794 µg/mL	29 nM	2 µg/mL		MIC [1, 5]: 8 µg/mL; MIC [1, 6]: 8 µg/mL; MIC [1, 7]: 10.1 µg/mL; MIC [1, 8]: 32 µg/mL
CC(C)C[C@H](N)C(=O)N=[S@](N)(=O)c1ccc2c(c1)OCO2.Cl [ANASIA-101-1]	64 µg/mL	1670 nM			
CCOc1cccc(S(N)(=O)=NC(=O)[C@@H](N)CC(C)C)c1 (stereo partly shown) [ANASIA-066]	64 µg/mL (≈ 204 µM)		> 64 µg/mL	553 nM	
CC(C)C[C@H](N)C(=O)N=S(N)(=O)c1cc(F)c(F)s1 (stereo partly shown) [ANASIA-063]			64 µg/mL (≈ 206 µM)	223 nM	MIC [1, 7]: > 256 µg/mL
CC(C)C[C@H](N)C(=O)N=[S@](N)(=O)c1cc(Cl)c(Cl)s1.Cl [ANASIA-121-1]	8 µg/mL	41.7 nM	16 µg/mL		MIC [1, 7]: > 256 µg/mL
CC(C)C[C@H](N)C(=O)N=S(N)(=O)c1ccc(F)s1 (stereo partly shown) [ANASIA-071]			8 µg/mL (≈ 27.3 µM)	173 nM	MIC [1, 7]: 32 µg/mL (≈ 109 µM)
CC(C)C[C@H](N)C(=O)N=[S@](N)(=O)c1csc(Cl)c1Cl.Cl [ANASIA-125-1]		304 nM	64 µg/mL		MIC [1, 7]: > 256 µg/mL
CC(C)C[C@H](N)C(=O)N=[S@](N)(=O)c1sc(Cl)cc1Cl.Cl [ANASIA-120-1]	32 µg/mL	293 nM			
CC(C)C[C@H](N)C(=O)N=S(N)(=O)c1ccsc1F (stereo partly shown) [ANASIA-074]			16 µg/mL (≈ 54.5 µM)	99.2 nM	MIC [1, 7]: 32 µg/mL (≈ 109 µM)
Cc1nc([S@@](N)(=O)=NC(=O)[C@@H](N)CC(C)C)cs1.Cl [ANASIA-129-1]		319 nM	64 µg/mL		MIC [1, 7]: 128 µg/mL
CC(C)C[C@H](N)C(=O)N=S(N)(=O)c1sccc1-c1ccccc1 (stereo partly shown) [ANASIA-068]	32 µg/mL (≈ 91 µM)		> 64 µg/mL	141 nM	
Cc1c([S@@](N)(=O)=NC(=O)[C@@H](N)CC(C)C)csc1Cl.Cl [ANASIA-122-1]	32 µg/mL	167 nM			
CC(C)C[C@H](N)C(=O)N=[S@](N)(=O)c1ccsc1C(F)F.Cl [ANASIA-126-1]	5.66 µg/mL	208 nM	32 µg/mL		MIC [1, 5]: > 64 µg/mL; MIC [1, 6]: > 64 µg/mL; MIC [1, 7]: 256 µg/mL; MIC [1, 8]: > 64 µg/mL
C=Cc1ccc([S@@](N)(=O)=NC(=O)[C@@H](N)CC(C)C)s1 [ANASIA-105-1, (S)-2-amino-N—((S)-amino(oxo)(5-vinylthiophen-2-yl)-λ6-sulfanylidene)-4-methylpentanamide]	32 µg/mL (≈ 106 µM)	489 nM			
CC(C)C[C@H](N)C(=O)N=[S@@](N)(=O)c1scc(F)c1F [ANASIA-103-2]	16 µg/mL (≈ 51.4 µM)			210 nM	
Cc1cscc1[S@@](N)(=O)=NC(=O)[C@@H](N)CC(C)C.Cl [ANASIA-094-1]	8 µg/mL	476 nM	64 µg/mL		MIC [1, 7]: 128 µg/mL
CCc1csc([S@@](N)(=O)=NC(=O)[C@@H](N)CC(C)C)c1 [ANASIA-133-1, (S)-2-amino-N—((S)-amino(4-ethylthiophen-2-yl)(oxo)-λ6-sulfanylidene)-4-methylpentanamide]		97.3 nM	8 µg/mL (≈ 26.4 µM)		MIC [1, 7]: 128 µg/mL (≈ 422 µM)
CC(C)C[C@H](N)C(=O)N=[S@](N)(=O)c1ccccn1.Cl [ANASIA-075-1]	32 µg/mL	420 nM			MIC [1, 10]: > 64 µg/mL
CC(C)C[C@H](N)C(=O)N=[S@](N)(=O)c1csc2ccccc12 [ANASIA-083-1]	32 µg/mL (≈ 98.3 µM)			157 nM	MIC [1, 10]: 32 µg/mL (≈ 98.3 µM)
COc1cccc(S(N)(=O)=NC(=O)[C@@H](N)CC(C)C)c1 (stereo partly drawn) [ANASIA-102, (2S)-2-amino-N-(amino(3-methoxyphenyl)(oxo)-16-sulfaneylidene)-4-methylpentanamide]	16 µg/mL (≈ 53.4 µM)		> 64 µg/mL	385 nM	
CC(C)C[C@H](N)C(=O)N=[S@](N)(=O)c1csc(Cl)c1.Cl [ANASIA-099-1]	0.5 µg/mL	124 nM	4 µg/mL		MIC [1, 5]: 16 µg/mL; MIC [1, 6]: 4 µg/mL; MIC [1, 7]: 8 µg/mL; MIC [1, 8]: 64 µg/mL

Compound	MIC [1, 3]	IC50 [2]	MIC [1, 4]	IC50 [2, 9]	also measured
CC(C)C[C@H](N)C(=O)N=S(N)(=O)c1ccsc1C(N)=O (stereo partly drawn) [ANASIA-093, 3-(N′-(L-leucyl)sulfamidimidoyl)thiophene-2-carboxamide hydrochloride]				1330 nM	
CC(C)C[C@H](N)C(=O)N=[S@@](N)(=O)c1cccc(Oc2ccccc2)c1 [ANASIA-114-2]				982 nM	
CC(C)C[C@H](N)C(=O)N=[S@@](N)(=O)c1cccc(OC(F)F)c1 [ANASIA-088-2]				1560 nM	
CC(C)C[C@H](N)C(=O)N=[S@](N)(=O)c1ccc(C(C)C)s1 [ANASIA-111-1]		779 nM			
CC(C)C[C@H](N)C(=O)N=[S@](N)(=O)c1nsc2ccccc12 [ANASIA-132-1]		4140 nM			
Cc1ccccc1[S@@](N)(=O)=NC(=O)[C@@H](N)CC(C)C [ANASIA-086-1]		3330 nM			
CC(C)C[C@H](N)C(=O)N=S(N)(=O)c1ccn(C)n1 (stereo partly shown) [ANASIA-073]		238 nM			
CC(C)C[C@H](N)C(=O)N=[S@@](N)(=O)c1cc(F)cs1 [ANASIA-062-2]				715 nM	
CC(C)C[C@H](N)C(=O)N=[S@](N)(=O)c1csc(C#N)c1 [ANASIA-135-1]		5070 nM			
CC(C)C[C@H](N)C(=O)N=[S@](N)(=O)c1cscc1-c1ccccc1 [ANASIA-130-1]		324 nM			
CC(C)C[C@H](N)C(=O)N=[S@@](N)(=O)c1csc2ccccc12 [ANASIA-083-2]				2300 nM	
CC(C)C[C@H](N)C(=O)N=[S@@](N)(=O)c1csc(Cl)c1 [ANASIA-099-2]				511 nM	
CC(C)C[C@H](N)C(=O)N=[S@@](N)(=O)c1cc(C#N)cs1 [ANASIA-136-2]				1410 nM	
CC(C)C[C@H](N)C(=O)N=[S@@](N)(=O)c1csc(Cl)c1Cl [ANASIA-125-2]				1930 nM	
Cc1cc([S@](N)(=O)=NC(=O)[C@@H](N)CC(C)C)cs1 [ANASIA-098-2]				5140 nM	
C=CCc1cccc(S(N)(=O)=NC(=O)[C@@H](N)CC(C)C)c1 (stereo partly drawn) [ANASIA-085, (2S)—N-((3-allylphenyl)(amino)(oxo)-λ6-sulfanylidene)-2-amino-4-methylpentanamide hydrochloride]				594 nM	
CC(C)C[C@H](N)C(=O)N=S(N)(=O)c1cc2sccc2s1 (stereo partly shown) [ANASIA-082]				449 nM	
Cc1c([S@](N)(=O)=NC(=O)[C@@H](N)CC(C)C)csc1Cl [ANASIA-122-2]				1930 nM	
CC(C)C[C@H](N)C(=O)N=[S@@](N)(=O)c1cccc(C(F)(F)F)c1 [ANASIA-089-2]		2390 nM			
CC(C)C[C@H](N)C(=O)N=[S@](N)(=O)c1ccccc1F [ANASIA-087-2]				4920 nM	
CC(C)C[C@H](N)C(=O)N=[S@@](N)(=O)c1cc(Cl)c(Cl)s1 [ANASIA-121-2]				1100 nM	
CC(C)C[C@H](N)C(=O)N=[S@@](N)(=O)c1sc(Cl)cc1Cl [ANASIA-120-2]				7600 nM	
CC(C)C[C@H](N)C(=O)N=[S@@](N)(=O)c1ccsc1C(F)F [ANASIA-126-2]				1720 nM	
